Holding throughout (assay type): cell-based
In one test the test system is VCAM-1. As to the kind of experiment: VCAM-1 ELISA on lysates of TNF-α stimulated HUVECs. Particulars: Homo sapiens, HUVEC, approx. 16 hours. How it is done:
(§1) Compounds were dissolved in DMSO, aliquoted, and stored at −20° C. Cultured human vascular endothelial cells (HUVECs) were seeded in 96-well plates in complete EGM-2 media (˜100 μL/well); cells were plated at ˜2-3×10^5/mL, and were from passage 8 to 12. Cells were incubated overnight. On the following day cells are stimulated with TNF-α (˜1 ng/mL) in the presence or absence of compounds dissolved in DMSO. Triplicate wells were used for each test. To establish a dose curve and an IC50, multiple concentrations in 2- to 5-fold increments were used. Cells were exposed to TNF-α and compounds for approximately 16 hours. The next day, cells were visually examined via light microscopy to score for visual signs of toxicity. Cell culture media was analyzed using an MCP-1 ELISA. Cells were refed (−100 μL/well) with 20% CellTiter 96. Aqueous One Cell Proliferation Solution (Promega), 80% EGM-2 medium. Media optical density (at 490 nm) was determined after 1 hour. Plates were aspirated and cell lysates were prepared and these lysates were tested using a VCAM-1 ELISA.
(§2) In Table 2, a positive result (+) was defined as at least 50% inhibition of the protein levels MCP-1 or VCAM-1, as determined by the ELISA.
For orientation: In an ELISA, binding on a coated surface is turned into a signal by an enzyme label.

A further test has as its system MCP-1. Briefly: MCP-1 ELISA on culture media of TNF-α stimulated HUVECs. The note with it: Homo sapiens, HUVEC, approx. 16 hours. The protocol:
as §1, §2

The subject of test [1] is Human coronary artery smooth muscle cells (CASMCs). Briefly: Smooth muscle cell proliferation protocol. The note with it: 72 hours, read-out: % Inhibition of SMC Proliferation. How it is done:
Compounds were dissolved in DMSO, aliquoted, and stored at −20° C. Human coronary artery smooth muscle cells (CASMCs) were plated in 96-well plates and were grown in SmBM-2 media. After 1-2 hours, media was aspirated and replaced with serum-free ME/F12 media, except the controls. Cells were incubated for a further 48 hours. Compounds were diluted in DME/F12 containing 10% FBS. Media was aspirated from the plates and compounds in DME/F12 containing 10% FBS. Six wells were used per condition and duplicate plates were used. Cells were incubated for a further 72 hours. Media was aspirated from one set of plates; those cells were refed (˜100 μL/well) with 20% CellTiter 96 Aqueous One Cell Proliferation Solution (Promega), 80% EGM-2 medium. Media optical density (at 490 nm) was determined after 3-4 hours. In the second set of plates, serum-free DME/F12 media (20 μL) was added to each well. Part of the supernatant (50 μL) was removed and placed in an ELISA plate and was stored temporarily at 4° C. The remaining media and cells in the second set of plates were freeze-thawed for four cycles. The lysates and supernatants were mixed and centrifuged. Part of the supernatant (50 μL) was removed and placed in an ELISA plate. The Promega Cytotox assay was performed on the ELISA plates. The ratio of supernatant OD to supernatant+cell lysate OD was determined.
In Table 2, a positive result (+) was defined as at least 40% inhibition of the proliferation of SMC, as determined by the assay.

Structures are written as SMILES. Where a name gives a salt, the structure may show the parent alone. Some results are limits rather than exact numbers.

Turning to `CC(C)(Sc1cc(C(C)(C)C)c(O)c(C(C)(C)C)c1)Sc1cc(C(C)(C)C)c(OC(=O)CCC(=O)O)c(C(C)(C)C)c1` [AGI1067, reference compound], the inhibition at 5 µM came to 68% in the test with VCAM-1 (5 uM) and 60% with MCP-1 (5 uM).
In the case of `O=c1cc(-c2ccc(O)cc2)oc2ncccc12` [EXAMPLE 1, 2-(4-Hydroxy-phenyl)-pyrano[2,3-b]pyridin-4-one], the figures for the inhibition at 50 µM (in test [1]; in the test with VCAM-1; with MCP-1) were less than 40%, no less than 50% and less than 50%, respectively.
The matching figures for `O=c1cc(-c2ccc(O)cc2)oc2cccnc12` [EXAMPLE 2, 2-(4-Hydroxy-phenyl)-pyrano[3,2-b]pyridin-4-one]: no less than 40%, less than 50% and less than 50%.
For `O=c1cc(-c2ccc(O)cn2)oc2ccccc12` [EXAMPLE 11, 2-(5-Hydroxy-pyridin-2-yl)chromen-4-one] the same measures were less than 40%, less than 50% and less than 50%.
The matching figures for `O=c1cc(-c2ccncc2)oc2ccccc12` [EXAMPLE 12, 2-Pyridin-4-yl-chromen-4-one]: no less than 40%, no less than 50% and no less than 50%.
Consider `O=c1cc(-c2ccc(O)cc2)[nH]c2ccccc12` [EXAMPLE 14, 2-(4-Hydroxy-phenyl)-1H-quinolin-4-one], for which the figures for the inhibition at 50 µM (in test [1]; with VCAM-1; in the test with MCP-1) were less than 40%, no less than 50% and no less than 50%, respectively.
For the compound `O=C1C=C(c2ccc(O)cc2)C(=O)c2ccccc21` [EXAMPLE 20, 2-(4-Hydroxy-phenyl)-[1,4]naphthoquinone], the inhibition at 10 µM is less than 40% in test [1], no less than 50% in the test on VCAM-1 and less than 50% in the test on MCP-1.
Take `CN(C)Cc1ccc2c(=O)cc(-c3ccc(O)cc3)oc2n1` [EXAMPLE 26, 7-((dimethylamino)methyl-2-(4-hydroxyphenyl)-4H-pyrano[2,3-b]pyridin-4-one dihydrochloride]: the inhibition at 50 µM in test [1] is no less than 40%; in the test with VCAM-1 it was less than 50%; in the test with MCP-1, less than 50%.
Consider `CN(C)CCOc1ccc(-c2cc(=O)c3cccnc3o2)cc1` [EXAMPLE 27, 2-(4-(2-(dimethylamino)ethoxy)phenyl)-4H-pyrano[2,3-b]pyridin-4-one dihydrochloride], for which the inhibition at 50 µM was no less than 40% in test [1], less than 50% with VCAM-1 and less than 50% with MCP-1.
As for `O=c1cc(-c2ccncc2)oc2ncccc12` [EXAMPLE 30, 2-(pyridin-4-yl)-4H-pyrano[2,3-b]pyridin-4-one hydrochloride], the results for the inhibition at 50 µM (in test [1]; in the test on VCAM-1; with MCP-1) were no less than 40%, less than 50% and less than 50%, respectively.
Regarding `Cc1cc(-c2cc(=O)c3cccnc3o2)cc(C)c1OCCN1CCOCC1` [EXAMPLE 31, 2-(3,5-dimethyl-4-(2-morpholinoethoxy)phenyl)-4H-pyrano[2,3-b]pyridin-4-one hydrochloride], the results for the inhibition at 50 µM (in test [1]; in the test with VCAM-1; in the test on MCP-1) were no less than 40%, no less than 50% and less than 50%, respectively.
For `Cc1cc(-c2cc(=O)c3cc(CN4CCCC4)cnc3o2)cc(C)c1O` [EXAMPLE 33, 2-(4-hydroxy-3,5-dimethylphenyl)-6-(pyrrolidin-1-ylmethyl)-4H-pyrano[2,3-b]pyridin-4-one dihydrochloride] the same measures were no less than 40%, less than 50% and no less than 50%.
Consider `COc1cc(OC)c2c(=O)cc(-c3ccncc3)oc2c1` [EXAMPLE 34, 5,7-dimethoxy-2-(pyridin-4-yl)-4H-chromen-4-one hydrochloride], for which the inhibition at 50 µM is no less than 40% in test [1], less than 50% in the test on VCAM-1 and less than 50% with MCP-1.
For the compound `O=c1cc(-c2ccccc2)oc2ncc(CN3CCCC3)cc12` [EXAMPLE 35, 2-phenyl-6-(pyrrolidin-1-ylmethyl)-4H-pyrano[2,3-b]pyridin-4-one hydrochloride], the inhibition at 50 µM is no less than 40% in test [1], less than 50% in the test on VCAM-1 and less than 50% in the test on MCP-1.
As to `O=c1cc(-c2ccc(F)cc2)oc2ncc(CN3CCCC3)cc12` [EXAMPLE 37, 2-(4-fluorophenyl)-6-(pyrrolidin-1-ylmethyl)-4H-pyrano[2,3-b]pyridin-4-one hydrochloride], the inhibition at 50 µM in test [1] is no less than 40%; with VCAM-1, no less than 50%; with MCP-1 it was less than 50%.
The matching figures for `Nc1ccc(-c2cc(=O)c3cccnc3o2)cc1` [EXAMPLE 38, 2-(4-aminophenyl)-4H-pyrano[2,3-b]pyridin-4-one hydrochloride]: no less than 40%, less than 50% and less than 50%.
For `CC(C)Oc1ccc(-c2cc(=O)c3cc(CN4CCCC4)cnc3o2)cc1` [EXAMPLE 39, 2-(4-isopropoxyphenyl)-6-(pyrrolidin-1-ylmethyl)-4H-pyrano[2,3-b]pyridinone hydrochloride] the same measures were no less than 40%, no less than 50% and no less than 50%.
The matching figures for `Cc1cc(-c2cc3ncccc3c(=O)[nH]2)cc(C)c1O` [EXAMPLE 40, 7-(4-hydroxy-3,5-dimethylphenyl)-1,6-naphthyridin-5(6H)-one hydrochloride]: no less than 40%, less than 50% and less than 50%.
Take `COc1cc(O)nc2cc(-c3cc(C)c(O)c(C)c3)[nH]c(=O)c12` [EXAMPLE 41, 2-hydroxy-7-(4-hydroxy-3,5-dimethylphenyl)-4-methoxy-1,6-naphthyridin-5(6H)-one dihydrochloride]: the inhibition at 50 µM in test [1] was no less than 40%; in the test on VCAM-1 it was no less than 50%; in the test on MCP-1, no less than 50%.
`CNc1nc(-c2cc(C)c(O)c(C)c2)cc2ccc(CN3CCN(C)CC3)cc12` [EXAMPLE 43, 2,6-dimethyl-4-(1-(methylamino)-7-((4-methylpiperazin-1-yl)methyl)isoquinolin-3-yl)phenol trihydrochloride]: the inhibition at 50 µM in test [1] was no less than 40%; with VCAM-1, no less than 50%; with MCP-1, no less than 50%.
Turning to `COc1cc(OC)c2c(=O)[nH]c(-c3cc(C)c(OCCN4CCOCC4)c(C)c3)cc2c1` [EXAMPLE 48, 3-(3,5-dimethyl-4-(2-morpholinoethoxy)phenyl)-6,8-dimethoxyisoquinolin-1(2H)-one], the inhibition at 50 µM in test [1] was no less than 40%; with VCAM-1 it was no less than 50%; in the test on MCP-1, less than 50%.
Consider `Cc1cccc2oc(-c3ccncc3)cc(=O)c12` [EXAMPLE 49, 5-methyl-2-(pyridin-yl)-4H-chromen-4-one], for which the inhibition at 10 µM in test [1] was less than 40%; with VCAM-1, less than 50%; in the test on MCP-1 it was less than 50%.
For `CC(C)(Sc1cc(C(C)(C)C)c(O)c(C(C)(C)C)c1)Sc1cc(C(C)(C)C)c(O)c(C(C)(C)C)c1` [Probucol, probucol, reference compound], the inhibition at 10 µM in the test on VCAM-1 is 19%; with MCP-1, 15%.
For `CO[C@H]1C[C@@H]2CC[C@@H](C)[C@@](O)(O2)C(=O)C(=O)N2CCCC[C@H]2C(=O)O[C@H]([C@H](C)C[C@@H]2CC[C@@H](O)[C@H](OC)C2)CC(=O)[C@H](C)/C=C(\C)[C@@H](O)[C@@H](OC)C(=O)[C@H](C)C[C@H](C)/C=C/C=C/C=C/1C` [Rapamycin, rapamycin, reference compound], the inhibition at 50 µM in test [1] was determined as 43%.
Turning to `Oc1ccc(C=Cc2cc(O)cc(O)c2)cc1` [Resveratrol, resveratrol, reference compound], the inhibition at 50 µM in the test with VCAM-1 was determined as 54%; in the test on MCP-1, 47%.
Turning to `CC(=O)O[C@H]1C(=O)[C@@]2(C)[C@H]([C@H](OC(=O)c3ccccc3)[C@]3(O)C[C@H](OC(=O)[C@H](O)[C@@H](NC(=O)c4ccccc4)c4ccccc4)C(C)=C1C3(C)C)[C@]1(OC(C)=O)CO[C@@H]1C[C@@H]2O` [Taxol, taxol, reference compound], the inhibition at 0.1 µM in test [1] (100 nM) was found to be 19%.

For the origin of these results see patent US8410109B2, “Pharmaceutical compositions for the prevention and treatment of complex diseases and their delivery by insertable medical devices” (Resverlogix Corp., priority 2005, dated 2013).
